What was measured:
[1] = tested on: Male albino Sprague-Dawley rats; experiment: Rat Social Interaction Test (SIT); format: in vivo
Experimental: Rats were allowed to acclimate to the animal care facility for 5 days and were housed singly for 5 days prior to testing. Animals were handled for 5 minutes per day. The design and procedure for the Social Interaction Test was carried out as previously described by Kennett, et al. (1997). On the test day, weight matched pairs of rats (± 5%), unfamiliar to each other, were given identical treatments and returned to their home cages. Animals were randomly divided into 5 treatment groups, with 5 pairs per group, and were given one of the following i.p. treatments: Example 92 (10, 30 or 100 mg/kg), vehicle (1 ml/kg) or chlordiazepoxide (5 mg/kg). Dosing was 1 hour prior to testing. Rats were subsequently placed in a white perspex test box or arena (54 x 37 x 26 cm), whose floor was divided up into 24 equal squares, for 15 minutes. An air conditioner was used to generate background noise and to keep the room at approximately 74°F. All sessions were videotaped using a JVC camcorder (model GR-SZ1, Elmwood Park, NJ) with either TDK (HG ultimate brand) or Sony 30 minute videocassettes. All sessions were conducted between 1:00 - 4:30 P.M. Active social interaction, defined as grooming, sniffing, biting, boxing, wrestling, following and crawling over or under, was scored using a stopwatch (Sportsline model no. 226, 1/100 sec. discriminability). The number of episodes of rearing (animal completely raises up its body on its hind limbs), grooming (licking, biting, scratching of body), and face washing (i.e. hands are moved repeatedly over face), and number of squares crossed were scored. Passive social interaction (animals are lying beside or on top of each other) was not scored. All behaviors were assessed later by an observer who was blind as to the treatment of each pair. At the end of each test, the box was thoroughly wiped with moistened paper towels.
Male albino Sprague-Dawley rats (Taconic Farms, NY) were housed in pairs under a 12 hr light dark cycle (lights on at 0700 hrs.) with free access to food and water.
Example 92 was dissolved in 100% DMSO (Sigma Chemical Co., St. Louis, MO). Chlordiazepoxide (purchased from Sigma Chemical Co., St. Louis, MO) was dissolved in double distilled water. The vehicle consisted of 50% DMSO (v/v). All drug solutions were made up 10 minutes prior to injection and the solutions were discarded.
Example 34 was dissolved in 5% lactic acid, v/v. The vehicle consisted of 100% dimethylacetamide (DMA) and this was used to make up all drug solutions. All drug solutions were made up fresh each day and any unused solutions were discarded at the end of the test day. The volume of drug solution administered was 1 ml/kg.
The social interaction data (time interacting, rearing and squares crossed) were subjected to a randomized, one-way ANOVA and post hoc tests conducted using the Student-Newman-Keuls test. The data were subjected to a test of normality (Shapiro-Wilk test). The data were analyzed using the GBSTAT program, version 6.5 (Dynamics Microsystems, Inc., Silver Spring, MD, 1997). All data are presented as means ± S.E.M.

[2] = molecular target: T1, human histamine H1 receptor (Homo sapiens, UniProt P35367); experiment: Radioligand binding, histamine H1 receptor; settings: for selectivity ratio hH1: Table 10, Ki hH1 divided by Ki hGAL3
T1 construct: expressed in transfected cells
T1 sequence (P35367 whole entry): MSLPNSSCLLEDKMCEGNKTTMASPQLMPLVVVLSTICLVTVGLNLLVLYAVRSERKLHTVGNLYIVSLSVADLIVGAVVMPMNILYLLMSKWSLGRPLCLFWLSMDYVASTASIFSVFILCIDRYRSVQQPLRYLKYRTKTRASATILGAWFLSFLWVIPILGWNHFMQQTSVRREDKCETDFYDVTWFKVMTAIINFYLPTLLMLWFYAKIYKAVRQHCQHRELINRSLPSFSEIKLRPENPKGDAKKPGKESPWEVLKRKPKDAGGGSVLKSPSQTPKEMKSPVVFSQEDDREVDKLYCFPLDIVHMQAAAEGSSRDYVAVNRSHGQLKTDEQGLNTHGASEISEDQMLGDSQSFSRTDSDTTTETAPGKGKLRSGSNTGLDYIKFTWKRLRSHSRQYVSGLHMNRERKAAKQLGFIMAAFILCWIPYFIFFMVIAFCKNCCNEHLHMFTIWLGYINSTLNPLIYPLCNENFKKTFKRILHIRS
From the text: Other receptors: Cell membranes expressing human dopamine D1, D2, D4 and rat D3 receptors were purchased through BioSignal, Inc. (Montreal, Canada). Binding assays using the histamine H1 receptor; dopamine receptors; and α1A, α1E, and α2 adrenergic receptors may be carried out according to the procedures described in U.S. Patent No. 5,780,485, the disclosure of which is hereby incorporated by reference in its entirety into this application. Binding assays using the dopamine D5 receptor may be carried out according to the procedures described in U.S. Patent No. 5,882,855, the disclosure of which is hereby incorporated by reference in its entirety into this application. Binding assays for the human α1D adrenergic receptor may be carried out according to the procedures described in U.S. Patent No. 6,156,518, the disclosure of which is hereby incorporated by reference in its entirety into this application.
Binding data were analyzed using nonlinear regression and statistical techniques available in the GraphPAD Prism package (San Diego, CA). Enzymatic assay data were derived from a standard curve of reference compound data.

[3] = 100 mg/kg i.p., 1 hour prior to testing

Row | Compound | anxiolytic profile in the Social Interaction Test (conclusion) ([1]; overall conclusion of the study) | Ki ([2]; Table 9, read-out: hH1 Ki) [µM] | selectivity ratio hH1 [2] | Squares Crossed ([1]; 10 mg/kg i.p., 1 hour prior to testing) | Grooming bouts [1, 3] | Rearings [1, 3]
1 | Cc1ccc(Nc2cc(N3CCCCC3)nc(N3CCN(c4ncccc4C(F)(F)F)CC3)n2)cc1 [Example 34] | produces an anxioltyic action |  |  |  |  | 
2 | CN(C)c1cc(Nc2ccc(Cl)c(Cl)c2)nc(Nc2ccccc2)n1 [Example 60] |  | 39.9 | >100 |  |  | 
3 | O=C1C(=Nc2cccc(C(F)(F)F)c2)c2ccccc2N1c1ccccc1 [Example 92, 1-PHENYL-3- [[3-(TRIFLUOROMETHYL)PHENYL]IMINO]-1,3-DIHYDRO-2H-INDOL-2-ONE] |  |  | >100 | 298 ± 40 | 6.8 ± 1.3 | 31 ± 4

Source: patent EP2140864A2 (H. Lundbeck A/S, priority 2001, dated 2002)
